From patent US8563746B2, “Cyclic benzimidazole derivatives useful as anti-diabetic agents” (Merck Sharp & Dohme Corp, priority 2008, dated 2013)

Test system: ob/ob and db/db mice
Test: not given
Conditions: following 8 weeks of administration; cited from earlier work
For `NC(=O)c1ncn([C@@H]2O[C@H](CO)[C@@H](O)[C@H]2O)c1N` [AICAR], the blood glucose reduction is given as 35%.

Biological target: recombinant human AMPK complex 1 (containing α1β1γ1) (Homo sapiens, UniProt Q13131+Q9Y478)
Sequence (Q13131 whole entry): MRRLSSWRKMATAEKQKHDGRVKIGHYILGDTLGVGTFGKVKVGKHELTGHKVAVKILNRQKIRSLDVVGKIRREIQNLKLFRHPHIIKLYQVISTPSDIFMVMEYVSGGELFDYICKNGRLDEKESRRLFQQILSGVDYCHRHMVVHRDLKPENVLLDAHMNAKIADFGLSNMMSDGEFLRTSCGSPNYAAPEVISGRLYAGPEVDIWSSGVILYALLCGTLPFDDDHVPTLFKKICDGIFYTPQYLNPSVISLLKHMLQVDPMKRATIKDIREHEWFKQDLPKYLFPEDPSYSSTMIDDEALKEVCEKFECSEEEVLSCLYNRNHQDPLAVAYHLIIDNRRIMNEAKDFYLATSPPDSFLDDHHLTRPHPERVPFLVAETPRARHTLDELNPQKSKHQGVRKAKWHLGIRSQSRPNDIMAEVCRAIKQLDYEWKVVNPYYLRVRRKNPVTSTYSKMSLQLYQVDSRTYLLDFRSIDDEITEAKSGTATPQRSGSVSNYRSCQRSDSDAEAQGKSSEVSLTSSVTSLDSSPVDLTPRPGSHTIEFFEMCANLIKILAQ
Sequence (Q9Y478 whole entry): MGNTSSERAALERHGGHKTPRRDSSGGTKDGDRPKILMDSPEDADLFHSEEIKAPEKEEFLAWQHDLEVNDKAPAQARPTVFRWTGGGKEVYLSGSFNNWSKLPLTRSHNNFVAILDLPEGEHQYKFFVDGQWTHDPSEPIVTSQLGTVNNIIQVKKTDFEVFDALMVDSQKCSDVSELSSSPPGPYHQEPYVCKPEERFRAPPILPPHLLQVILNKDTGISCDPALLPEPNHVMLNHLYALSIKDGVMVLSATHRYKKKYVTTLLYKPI
Sequence (P54619 whole entry partner): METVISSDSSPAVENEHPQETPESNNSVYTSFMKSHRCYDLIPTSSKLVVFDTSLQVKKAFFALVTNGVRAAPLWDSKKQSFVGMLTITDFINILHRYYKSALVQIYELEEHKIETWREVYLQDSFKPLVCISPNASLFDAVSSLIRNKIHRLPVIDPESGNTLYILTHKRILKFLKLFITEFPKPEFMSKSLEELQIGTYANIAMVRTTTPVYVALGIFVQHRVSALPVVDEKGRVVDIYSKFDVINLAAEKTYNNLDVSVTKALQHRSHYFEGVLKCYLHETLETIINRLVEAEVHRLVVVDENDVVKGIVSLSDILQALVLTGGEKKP
Test: In vitro AMPK activation assay ([…])
Assay type: biochemical
Conditions: not given
Description: The recombinant human AMPK complex 1 (containing α1β1γ1) was obtained from baculovirus expression system. Recombinant viruses were generated by cotransfection of AMPK/pBacPak9 clones with Baculogold baculovirus DNA (Pharmingen) in spodoptera frugiperda 21 cells according to the manufacturer's instructions. Each round of virus amplification was performed for 5 days in Grace's medium containing 10% serum. Virus that had been subjected to three rounds of amplification was used for all protein production procedures. To express the AMPK complex, sf21 cells were adapted to serum free medium (SF900 II, Invitrogen) by sequential dilution from serum containing stocks into SF900II medium and maintained in shaker flasks at 90 rpm at 27° C. The recombinant AMPK enzyme complex was produced by triple infection, one recombinant virus for each of the subunits, in sf21 cells under serum free conditions. Cells were infected in log phase, 1×10^6 cells/ml, at a multiplicity of infection of ˜5. Cells were harvested by centrifugation at 10,000×g for 15 minutes after 72 hours of infection with viruses. The insect cell pellet from 2 liters of culture was resuspended in 50 ml lysis buffer (20 mM Tris-HCl, 50 mM NaCl, 50 mM NaF, 30 mM Na PPi, 0.25 M sucrose, 10 mM ZnCl2, 2 mM DTT, 0.4 mg/ml digitonin) and subjected to two cycles of freeze-thaw lysis in a dry-ice ethanol bath. Insoluble material was removed by centrifugation at 10,000×g and the supernatant was fractionated with use of polyethylene glycol (PEG). The protein fraction precipitating between 2.5 and 6% PEG was used for further purification using a Blue-Sepharose step (Zhou et al, J. Clin. Invest. 108, 1167-1174, 2001).
The total in vitro AMPK activation assay volume is 50 μl in a 96-well plate. The reaction mixture contained 100 μM ATP (0.5 μCi ^33P-ATP per reaction), and 50 μM SAMS ([…]) in a buffer (20 mM HEPES, pH 7.0, 5 mM MgCl2, 0.01% Brij35). The reaction was initiated with addition of the enzyme. After 30-minute incubation at 30° C., the reaction was stopped by addition of 80 μl 1% H3PO4. Aliquots (100 μl) were transferred to 96-well MultiScreen plates (MAPHNOB50; Millipore Corp., Bedford, Mass., USA). The plate was washed three times with 1% H3PO4 followed by detection in a Top-count. The counts per minute from the basal activity (the reaction without activator) was subtracted from each well and the data were expressed as % maximum AMP activation followed by EC50 calculation.
In the case of `O=C(O)CSc1nc2cc(-c3ccc(-c4ccccc4)cc3)c(Cl)cc2[nH]1` [Example 2, (5-Biphenyl-4-yl-6-chloro-1H-benzoimidazol-2-ylsulfanyl)-acetic acid], the EC50 is reported as 90 nM.

Same assay, conditions: recombinant human AMPK complex 1 (α1β1γ1); basal activity subtracted, expressed as % maximum AMP activation
With `O=C(O)CSc1nc2cc(-c3ccc(N4CCCCC4)cc3)c(Cl)cc2[nH]1` [Example 60] the Emax was > 40%.
In the case of `O=C(O)CSc1nc2cc(C#Cc3ccc(Cl)cc3)c(Cl)cc2[nH]1` [Example 67], the Emax is reported as > 40%.
In the case of `O=C(O)CSc1nc2cc(-c3ccc(-n4cccn4)cc3)c(Cl)cc2[nH]1` [Example 15, 2-(5-(4-(1H-pyrazol-1-yl)phenyl)-6-chloro-1H-benzo[d]imidazol-2-ylthio)acetic acid], the Emax is reported as > 40%.
With `O=C(O)CSc1nc2cc(-c3ccc(Cl)cc3)c(Cl)cc2[nH]1` [Example 41, [6-chloro-5-(4-chloro-phenyl)-1H-benzimidazol-2-ylsulfanyl]-acetic acid] the Emax was > 40%.
For `N#Cc1ccccc1C#Cc1cc2nc(SCC(=O)O)[nH]c2cc1Cl` [Example 20, [6-chloro-5-(2-cyano-phenyl-ethynyl)-1H-benzo-imidazol-2-ylsulfanyl]-acetic acid], the Emax was > 40%.
In the case of `O=C(O)CSc1nc2cc(C#Cc3ccc(C(F)(F)F)cc3)c(Cl)cc2[nH]1` [Example 65], the Emax is reported as > 40%.
With `Cc1cc(-c2cc3nc(SCC(=O)O)[nH]c3cc2Cl)ccc1Cl` [Example 85] the Emax was > 40%.
With `CCNC(=O)Nc1ccc(C#Cc2cc3nc(SCC(=O)O)[nH]c3cc2Cl)cc1` [Example 78] the Emax was > 40%.
For `O=C(O)CSc1nc2cc(-c3cc4ccccc4o3)c(Cl)cc2[nH]1` [Example 13, 2-(5-(benzofuran-2-yl)-6-chloro-1H-benzo[d]imidazol-2-ylthio)acetic acid], the Emax was > 40%.
With `Cc1ccccc1C#Cc1cc2nc(SCC(=O)O)[nH]c2cc1Cl` [Example 30, (6-chloro-5-o-tolylethynyl-1H-benzo-imidazol-2-ylsulfanyl)-acetic acid] the Emax was > 40%.
With `O=C(O)CSc1nc2cc(-c3ccc4cn[nH]c4c3)c(Cl)cc2[nH]1` [Example 11, 2-(6-chloro-5-(1H-indazol-6-yl)-1H-benzo[d]imidazol-2-ylthio)acetic acid] the Emax was > 40%.
In the case of `O=C(O)CSc1nc2cc(-c3ccc(Br)cc3)c(Cl)cc2[nH]1` [Example 79], the Emax is reported as > 40%.
With `O=C(O)CSc1nc2cc(-c3ccc(N4CCOCC4)cc3)c(Cl)cc2[nH]1` [Example 61] the Emax was > 40%.
With `O=C(O)CSc1nc2cc(C#Cc3ccc(Oc4ccccc4)cc3)c(Cl)cc2[nH]1` [Example 33, [6-Chloro-5-(4-phenoxy-phenylethynyl)-1H-benzoimidazol-2-ylsulfanyl]-acetic acid] the Emax was > 40%.
With `O=C(O)CSc1nc2cc(C#Cc3ccncc3)c(Cl)cc2[nH]1` [Example 25, (6-chloro-5-pyridin-4-yl-ethynyl-1H-benzoimidazol-2-ylsulfanyl)-acetic acid] the Emax was > 40%.
With `O=C(O)CSc1nc2cc(C#Cc3ccc(-c4ccccc4)cc3)c(Cl)cc2[nH]1` [Example 34, (5-biphenyl-4-ylethynyl-6-chloro-1H-benzoimidazol-2-ylsulfanyl)-acetic acid] the Emax was > 40%.
In the case of `O=C(O)CSc1nc2cc(C#Cc3ccccc3F)c(Cl)cc2[nH]1` [Example 27], the Emax is reported as > 40%.
For `COc1ccc2cc(C#Cc3cc4nc(SCC(=O)O)[nH]c4cc3Cl)ccc2c1` [Example 37, [6-chloro-5-(6-methoxy-naphthalen-2-yl-ethynyl)-1H-benzo-imidazol-2-yl-sulfanyl]-acetic acid], the Emax was > 40%.
With `O=C(O)CSc1nc2cc(-c3cc4ccccc4s3)c(Cl)cc2[nH]1` [Example 63] the Emax was > 40%.
With `CSc1ccc(-c2cc3nc(SCC(=O)O)[nH]c3cc2Cl)cc1` [Example 84] the Emax was > 40%.
In the case of `O=C(O)CSc1nc2cc(-c3ccc(N4CCOCC4)nc3)c(Cl)cc2[nH]1` [Example 62], the Emax is reported as > 40%.
With `O=C(O)CSc1nc2cc(-c3ccc4c(c3)OCO4)c(Cl)cc2[nH]1` [Example 3, (5-1,3-benzo-dioxol-5-yl-6-chloro-1H-benzimidazol-2-ylsulfanyl)-acetic acid] the Emax was > 40%.
With `O=C(O)CSc1nc2cc(C#Cc3cccnc3)c(Cl)cc2[nH]1` [Example 56] the Emax was > 40%.
For `O=C(O)CSc1nc2cc(C#CC3CCNCC3)c(Cl)cc2[nH]1` [Example 21, (6-chloro-5-piperidin-4-ylethynyl-1H-benzoimidazol-2-ylsulfanyl)-acetic acid], the Emax was > 40%.
In the case of `O=C(O)CCc1nc2cc(-c3ccc(-c4ccccc4)cc3)c(Cl)cc2[nH]1` [Example 51, 3-(5-Biphenyl-4-yl-6-chloro-1H-benzimidazol-2-yl)-propionic acid], the Emax is reported as > 40%.
For `O=C(O)CSc1nc2cc(C#CCOc3ccccc3)c(Cl)cc2[nH]1` [Example 26, [6-chloro-5-(3-phenoxy-prop-1-ynyl)-1H-benzo-imidazol-2-yl-sulfanyl]-acetic acid], the Emax was > 40%.
In the case of `CC(=O)NCc1ccc(-c2cc3nc(SCC(=O)O)[nH]c3cc2Cl)cc1` [Example 7, 2-(6-(4-(acetamido-methyl)phenyl)-5-chloro-1H-benzo[d]-imidazol-2-ylthio)-acetic acid], the Emax is reported as > 40%.
With `CCc1ccc(C#Cc2cc3nc(SCC(=O)O)[nH]c3cc2Cl)cc1` [Example 36, [6-chloro-5-(4-ethyl-phenyl-ethynyl)-1H-benzo-imidazol-2-yl-sulfanyl]-acetic acid] the Emax was > 40%.
In the case of `O=C(O)CSc1nc2cc(-c3cccc(N4CCOCC4)n3)c(Cl)cc2[nH]1` [Example 71], the Emax is reported as > 40%.
With `O=C(O)CSc1nc2cc(C#Cc3ccccc3[N+](=O)[O-])c(Cl)cc2[nH]1` [Example 70] the Emax was > 40%.
For `CNC(=O)c1ccc(C#Cc2cc3nc(SCC(=O)O)[nH]c3cc2Cl)cc1` [Example 83], the Emax was > 40%.
For `O=C(O)CSc1nc2cc(-c3csc4ccccc34)c(Cl)cc2[nH]1` [Example 14, 2-(5-(benzo[b]-thiophen-3-yl)-6-chloro-1H-benzo[d]-imidazol-2-ylthio)-acetic acid], the Emax was > 40%.
In the case of `CC(C)(COc1nc2cc(C#Cc3ccccc3)c(Cl)cc2[nH]1)C(=O)O` [Example 49, 3-(6-Chloro-5-phenylethynyl-1H-benzoimidazol-2-yloxy)-2,2-dimethyl-propionic acid], the Emax is reported as > 40%.

Same assay, conditions: recombinant human AMPK complex 1 (α1β1γ1); read-out: EC50
`O=C(O)COc1nc2cc(-c3ccc(-c4ccccc4)cc3)c(Cl)cc2[nH]1` [Example 46, [(5-biphenyl-4-yl-6-chloro-1H-benzimidazol-2-yl)oxy]ylacetic acid] showed an EC50 of 128 nM.
In the case of `O=C(O)CSc1nc2cc(-c3ccc4[nH]ccc4c3)c(Cl)cc2[nH]1` [Example 66], the EC50 is reported as 282 nM.
With `O=C(O)COc1nc2cc(-c3ccc(-c4ccn[nH]4)cc3)c(Cl)cc2[nH]1` [Example 45, {6-Chloro-5-[4-(2H-pyrazol-3-yl)-phenyl]-1H-benzoimidazol-2-yloxy}-acetic acid] the EC50 was 160 nM.
`O=C(O)COc1nc2cc(C#Cc3ccc(CO)cc3)c(Cl)cc2[nH]1` [Example 47] showed an EC50 of 97 nM.
In the case of `O=C(O)CSc1nc2cc(-c3ccc(-c4ccccc4O)cc3)c(Cl)cc2[nH]1` [Example 6, 2-(6-chloro-5-(2′-hydroxybiphenyl-4-yl)-1H-benzo[d]imidazol-2-ylthio)acetic acid], the EC50 is reported as 13 nM.
Work on `O=C(O)CSc1nc2cc(C#Cc3ccc(CO)cc3)c(Cl)cc2[nH]1` [Example 18, [6-Chloro-5-(4-hydroxymethyl-phenylethynyl)-1H-benzoimidazol-2-ylsulfanyl]-acetic acid] yielded an EC50 of 248 nM.
